Data reported in patent publication US20130122147A1, “METHODS FOR ENHANCING THE PALATABILITY OF COMESTIBLE COMPOSITIONS” (priority 2010, published 2013).

System: dogs
Assay: Two-bowl choice palatability test of pet foods
Assay type: in vivo
Method: Palatability testing followed the industry standard protocol for assessing preference, i.e., the two-bowl choice test. The dogs were tested individually inside their kennels. The panels consisted of a mix of breeds, distributed as equally as possible. The dogs were at least 12 months of age and the sex distribution was as equal as possible within panels. A choice of two bowls each with the same amount food, the test and the control diets, was offered simultaneously. The maximum length of the time the products were offered to the dogs was 20 minutes. Water was available at all times via an automatic water system. Bowl assignment for the foods was always counterbalanced.
At the end of a test, food consumption for each pet food for each dog was determined by subtracting the amount of food remaining in the bowls from what was initially offered to the dogs. A dog's preference was determined based on which food was most consumed.
The experiment was repeated twice.

CCCCCCCC/C=C\CCCCCCCC(=O)NCCO [OEA, N-oleoyl-ethanolamide]
Effect of OEA on palatability of the pet food (result in words) (food of Table 9 (0.41% OEA in basal meal) vs control Ex 7): enhanced the palatability
Effect of OEA on palatability of the pet foods (result in words) (foods of Table 8 (0.066-0.566% OEA) vs control Ex 1): enhanced the palatability
